# Experiments:
# [1] = tested on: TNF-α-induced signaling; test: hTNF-α-induced IL-8 mRNA in HEK-TLR2 stable transfectants; type: cell-based, human; details: C29 10 μM or 50 μM, hTNF-α 300 ng/mL 1 hr
# [2] = target: TLR2 (Homo sapiens, UniProt O60603); type: cell-based; details: HEK-TLR2 cells, C29 50 μM
# [3] = Thin layer chromatography of C29 in NaOH or organic solvent (imine cleavage); type: physicochemical
# Method: FIG. 11. C29 L reproduces the TLR2 inhibitory activity observed with C29. (A) C29 dissolved in NaOH generates ortho-vanillin (“C29L”) and 3-amino-2-methylbenzoic acid (“C29R”). (B) TLC plate coated with silica was spotted with C29 dissolved in 65 μM NaOH, C29 dissolved in ethyl acetate (organic solvent), and a mixture of both. The plate was placed in solvent and visualized using a KMnO4 stain. (C, D) Total RNA was extracted from murine peritoneal macrophages that had been pretreated for 1 hr with vehicle (65 μM NaOH), C29 (25 μM or 50 μM), C29L (25 μM or 50 μM), or C29R (25 μM or 50 μM) and then stimulated with P3C (50 ng/mL), P2C (100 ng/mL), or LPS (100 ng/mL) for 1 hr in the presence of vehicle, C29, C29L, or C29R. TNF-α mRNA was measured as described in FIG. 1, panel D. Quantitative real-time results are representative of 2 independent experiments each carried out in duplicate (*, p≤0.05; **, p≤0.01; ***, p≤0.001; ****, p≤0.0001).
# To preclude cytotoxicity from DMSO, C29 was dissolved in 65 μM NaOH in H2O. […] The two cleavage products, C29L and C29R, were tested to determine if either would reproduce the TLR2 inhibitory activity of C29.
# [4] = target: TLR2/6 (Homo sapiens, UniProt O60603); test: P2C-induced IL-8 mRNA (qRT-PCR) in HEK-TLR2 stable transfectants; type: cell-based; design: expressed in transfected cells
# TLR2/6, sequence (O60603 21-784): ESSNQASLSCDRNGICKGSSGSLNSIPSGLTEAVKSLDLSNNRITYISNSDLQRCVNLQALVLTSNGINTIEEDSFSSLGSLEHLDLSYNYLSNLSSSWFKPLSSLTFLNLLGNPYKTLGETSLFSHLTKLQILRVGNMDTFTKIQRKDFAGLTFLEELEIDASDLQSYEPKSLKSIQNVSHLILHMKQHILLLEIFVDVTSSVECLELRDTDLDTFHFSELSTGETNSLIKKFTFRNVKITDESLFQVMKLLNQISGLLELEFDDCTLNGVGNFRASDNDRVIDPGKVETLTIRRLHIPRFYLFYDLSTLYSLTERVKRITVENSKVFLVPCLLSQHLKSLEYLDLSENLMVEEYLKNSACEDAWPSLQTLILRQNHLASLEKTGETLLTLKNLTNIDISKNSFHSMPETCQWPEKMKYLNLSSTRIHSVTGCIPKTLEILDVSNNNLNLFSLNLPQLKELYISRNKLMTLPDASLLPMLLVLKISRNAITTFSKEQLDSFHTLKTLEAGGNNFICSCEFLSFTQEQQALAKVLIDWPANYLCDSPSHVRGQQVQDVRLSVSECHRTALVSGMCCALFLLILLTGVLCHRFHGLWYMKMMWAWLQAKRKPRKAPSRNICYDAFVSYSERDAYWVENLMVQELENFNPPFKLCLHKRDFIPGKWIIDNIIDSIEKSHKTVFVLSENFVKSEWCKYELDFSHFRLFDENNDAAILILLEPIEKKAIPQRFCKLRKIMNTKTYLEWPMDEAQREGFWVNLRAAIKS
# [5] = Solubility in water; type: physicochemical; details: compared with C29
# [6] = in vivo; stated for o-vanillin, reported previously for its isomer vanillin (Beaudry 2010); cited from earlier work
# [7] = target: TLR2/1 (Mus musculus, UniProt Q9QUN7); test: P3C-induced inflammation in vivo in C57BL/6J mice; design: tissue The Jackson Laboratory; host or cells: whole animal; liver RNA and serum analysed; details: C29L i.p. 1.314 mM/g twice, P3C 100 μg i.p.
# TLR2/1, sequence (Q9QUN7 25-784): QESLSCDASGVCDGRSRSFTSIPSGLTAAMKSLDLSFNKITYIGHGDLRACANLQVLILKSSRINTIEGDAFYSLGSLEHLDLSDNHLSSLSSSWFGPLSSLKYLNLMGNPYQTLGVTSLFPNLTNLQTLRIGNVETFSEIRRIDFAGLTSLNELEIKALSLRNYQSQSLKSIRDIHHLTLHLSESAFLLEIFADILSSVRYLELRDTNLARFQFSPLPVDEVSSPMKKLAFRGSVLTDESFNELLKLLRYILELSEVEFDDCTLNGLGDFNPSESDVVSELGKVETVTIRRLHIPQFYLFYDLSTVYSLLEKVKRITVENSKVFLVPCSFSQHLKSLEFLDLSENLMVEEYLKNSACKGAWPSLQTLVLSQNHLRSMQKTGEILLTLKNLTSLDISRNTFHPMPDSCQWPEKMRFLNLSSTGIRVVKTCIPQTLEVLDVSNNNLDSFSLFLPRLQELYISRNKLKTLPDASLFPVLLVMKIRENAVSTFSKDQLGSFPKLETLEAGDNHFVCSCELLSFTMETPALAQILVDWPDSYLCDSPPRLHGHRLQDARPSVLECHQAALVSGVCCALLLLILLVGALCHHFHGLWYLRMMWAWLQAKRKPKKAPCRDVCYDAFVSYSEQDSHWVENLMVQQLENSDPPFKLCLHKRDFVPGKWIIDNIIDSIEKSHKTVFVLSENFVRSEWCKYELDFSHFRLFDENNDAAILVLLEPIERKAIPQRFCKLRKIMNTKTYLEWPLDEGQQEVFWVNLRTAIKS
# Method: FIG. 4. C29L inhibits TLR2/1-induced inflammation in vivo. C57BL/6J mice were pretreated i.p. with vehicle (water) or C29L (1.314 mM/g) for 1 hr. Mice received a second pretreatment i.p. with vehicle (water) or C29L (1.314 mM/g) and subsequently were challenged i.p. with PBS or P3C (100 μg) and sacrificed 1 hr or 3 hrs later. Liver RNA (A) was analyzed by qRT-PCR and serum concentrations (B) were analyzed by Multiplex (*, p≤0.05; ***, p≤0.001; ****, p≤0.0001). Panels A and B, n=6 (the combined data from two separate experiments) for each treatment group.
# All animal studies were carried out with institutional approval. Female C57BL/6J mice (6-8 weeks old) were purchased from The Jackson Laboratory (Bar Harbor, ME) and (n=3 mice/group) received PBS, H2O, or C29L (in H2O) i.p. (1.314 mM/g). After 1 h, mice received a second injection of PBS, H2O, or C29L i.p. (1.314 mM/g) and were subsequently challenged i.p. with PBS or P3C (100 μg) for 1 or 3 h. Mice were bled and sera was prepared. Livers were also extracted for qRT-PCR analysis.
# TLR2, sequence (O60603 21-784 limits assumed): as the sequence (O60603 21-784) above
smiles,measurement,setting,value
COc1cccc(/C=N/c2cccc(C(=O)O)c2C)c1O [Compound C29],TNF-α-induced signaling (IL-8 mRNA),[1],no effect
same,live F. tularensis-induced IL-8 mRNA,"[2]; LVS MOI=10, 4 hrs, TLR2/6 agonist",significantly inhibited
same,heat-killed Ps. aeruginosa (HKPA)-induced IL-8 mRNA,"[2]; MOI=50, 4 hrs",significantly inhibited
same,heat-killed S. aureus (HKSA)-induced IL-8 mRNA,"[2]; MOI=50, 4 hrs",significantly inhibited
same,stability of imine linkage (TLC),[3]; dissolved in 65 μM NaOH in H2O,cleaved into these two species
same,stability of imine linkage (TLC),[3]; dissolved in an organic solvent (ethyl acetate),not when dissolved in an organic solvent
same,inhibition at 100 µM,"[4]; 100 μM compound, 1 hr pretreatment, P2C 5 ng/mL 1 hr, HEK-TLR2 cells, read-out: decrease of P2C-induced IL-8 mRNA",≥ 50%
same,P2C-induced IL-8 mRNA,"[4]; C29 10 μM or 50 μM, P2C 200 ng/mL 1 hr, HEK-TLR2 stable transfectants",blocked P3C- and P2C-induced IL-8 mRNA dose-dependently
"COc1cccc(C=O)c1O [Compound C29L, ortho-vanillin]",solubility in water,[5],more soluble in water than C29
same,bioavailability,[6],poor bioavailability
same,P3C-induced IL-12 p40 liver cytokine mRNA,[7]; 1 or 3 hrs,significantly blocked
same,P3C-induced IL-12 p40 serum protein,[7]; 1 or 3 hrs,significantly blocked
same,P3C-induced TNF-α liver cytokine mRNA,[7]; 1 or 3 hrs,significantly blocked
same,P3C-induced TNF-α serum protein,[7]; 1 or 3 hrs,significantly blocked
same,P3C-induced IL-12 p40 at the later time point,[7]; 3 hrs,significant inhibitory effect

# Reference: patent US12653800B2, “Small molecule inhibitors of TLR2 signaling” (University of Maryland, Baltimore, priority 2015, dated 2026)
